For one experiment, the system named is Gastric Acid Output. Nature of the experiment: Gastric antisecretory activity in the Gastric Fistula Rat (Table 2 title: Two-Hour Pylorus Ligated Rat). As to conditions: numbers in parentheses are the 95% confidence limits. The experiment is classed as in vivo, Long Evans rats. How it is done: Male Long Evans rats weighing about 240-260 grams at the time of cannula implantation are used. The design and implantation of the stainless steel cannula into the anterior wall of the fore-stomach are carried out essentially as described by Pare et al. [Laboratory Animal Science, 27, 244 (1977)]. The fistula components are designed and the operative procedure is carried out exactly as described in the above reference. Post operatively the animals are individually housed in solid bottom cages with sawdust and are allowed food and water ad libitum throughout the entire recovery period. Animals are not used for test purposes for at least 15 days after the operative procedure.
The animals are fasted but allowed water ad libitum for 20 hours before the testing procedure is to begin. Immediately prior to collection, the cannula is opened and the stomach washed gently with 30-40 mL of warm saline or distilled water to remove any residual contents. The catheter is then screwed into the cannula in place of the plugging screw and the rat is placed in a clear plastic rectangular cage measuring 40 cm long, 15 cm wide and 13 cm high. The bottom of the cage has a slit approximately 1.5 cm wide and 25 cm long running down the center to accommodate the catheter which hangs through it. In this way the rat is not restricted and can move freely about the cage during collection periods. The remainder of the assay is carried out as described by Ridley et al. [Research Comm. Chem. Path. Pharm., 17, 365 (1977)].
Gastric secretions collected during the first hour after washing the stomach are discarded as they may be contaminated. For oral evaluation, the catheter is then removed from the cannula and replaced with the plugging screw. Water (2 mL/kg) is administered orally via gastric intubation and the animal is returned to the cage for 45 minutes. After this time the plugging screw is removed and replaced with a catheter to which a small plastic vial has been attached to collect the gastric secretions. A two hour sample is collected (this represents the control secretion), the catheter removed and replaced with the plugging screw. The test drug is now administered orally in a volume of 2 mL/kg via gastric intubation. Forty-five minutes later the plugging screw is again removed, replaced with the catheter attached to a small plastic vial and another 2 hour sample is collected. The secretions in the second sample are compared to those of the control sample in order to determine the effects of the test drug.
When test compounds are to be evaluated parenterally, the animal is injected ip or sc with the test compound vehicle in a volume of 2 mL/kg immediately after discarding the initial 60 minute collection. A two hour sample is collected (control secretion) and the animals are injected either ip or sc with the test compound in a volume of 2 mL/kg. An additional two hour sample is collected and its secretions are compared to those of the control period to determing drug effects.
The samples are centrifuged in a graduated tube for volume determination. Titratable acidity is measured by titrating a one mL sample to pH 7.0 with 0.02N NaOH, using an Autoburet and an electrometric pH meter (Radiometer). Titratable acid output is calculated in microequivalents by multiplying the volume in milliliters by the acid concentration in milliequivalents per liter.
Results are expressed as percent inhibition relative to control readings. Dose response curves are constructed and ED values are calculated by regression analyses. At least three rats are used at each dosage level and a minimum of three dosage levels are utilized for determination of a dose response curve.

The subject of a further experiment is acid output. Nature of the experiment: Gastric antisecretory activity in the Heidenhain Pouch Dog. The experiment is classed as in vivo, dogs. The note with it: oral. How it is done: Prior to surgery, hematology and blood chemistry profiles are obtained and an assessment made as to the general health of selected female dogs. Dogs are vaccinated with Tissue Vax 5 (DHLP - Pitman-Moore) and housed in general animal quarters for four weeks' observation so incipient diseases may become apparent. Dogs are fasted with water ad libitum 24 hours prior to surgery.
Anesthesia is induced with Sodium Pentothal (Abbott) 25-30 mg/kg iv. Subsequent anesthesia is maintained with methoxy- flurane (Pitman-Moore). A mid-line linea alba incision from xiphoid to umbilicus provides good exposure and ease of closure. The stomach is pulled up into the operative field, the greater curvature stretched out at multiple points and clamps placed along the selected line of incision. The pouch is made from the corpus of the stomach so that true parietal cell juice is obtained. About 30% of the corpus volume is resected. The cannula is made of light-weight, biologically-inert material such as nylon or Delrin with dimensions and attachments after DeVito and Harkins [J. Appl. Physiol., 14, 138 (1959)]. Post operatively, dogs are medicated with antibiotics and an analgesic. They are allowed 2-3 months for recovery. Experiments are carried out in the following way: Dogs are fasted overnight (~18 hours) with water ad libitum prior to each experiment. The dogs are placed in a sling and a saphenous vein cannulated for drug administration. Histamine as the base (100 ug/kg/hr) and chlorpheniramine maleate (0.25 mg/kg/hr) are infused continuously (in a volume of 6 mL/hr) with a Harvard infusion pump.
Ninety minutes' infusion are allowed for the dogs to reach a steady state of acid output. At this time the drug or normal saline (control) is administered concomitantly with the secretagogue in a volume of 0.5 mL/kg over a 30 second period. When oral studies are to be carried out, the drug is administered via gastric gavage in a volume of 5 mL/kg. Infusion of the secretagogue is continued and 15 minute samples of.the gastric juice are taken for 4.5 hours. Each sample is measured to the nearest 0.5 mL and titratable acidity is determined by titrating a 1 mL sample to pH 7.0 with 0.2N NaOH, using an Autoburet and an electrometric pH meter (Radiometer). Titratable acid output is calculated in microequivalents by multiplying the volume in milliliters by the acid concentration in milliequivalents per liter.
Results are expressed as percent inhibition relative to control readings. Dose response curves are constructed and ED50 values are calculated by regression analyses. From 3 to 5 dogs are used at each dose level and a minimum of three dosage levels are utilized for determination of a dose response curve.

[1] abbreviates: Rattus norvegicus, ip, Route of Administration i.p., read-out: ED50.
The mark [2] stands for this setting: Rattus norvegicus, sc, Route of Administration s.c., read-out: ED50.

Where two headings read alike, the source gives them in different places.

In the case of `CN(C)Cc1ccc(CSCCNC2=NS(=O)(=O)N=C2NCCSCc2ccc(CN(C)C)o2)o1` [11 B], the ED50 with Gastric Acid Output (Route of Administration i.p.) is 0.69 (0.31-1.33) μmoles/kg. The “Potency Ratio (cimetidine = 1.0)” value with acid output stood at 11.
`NC1=NS(=O)(=O)N=C1NCCCOc1cccc(CN2CCCC2)c1` [146 a]: in the experiment on Gastric Acid Output (Route of Administration s.c.), the ED50 is listed as 0.023 (0.0091-0.046) μmoles/kg. Also, the “Potency Ratio (cimetidine = 1.0)” value in the experiment with acid output is listed as approximately 20.
Turning to `CCNC1=NS(=O)(=O)N=C1NCCSCc1ccc(CN(C)C)o1` [Example 12, 3-{2-[(5-Dimethylaminomethyl-2-furyl)methylthio]ethyl-amino]-4-ethylamino-1,2,5-thiadiazole 1,1-dioxide], in the experiment with Gastric Acid Output (setting [1]), the ED50 amounted to 0.28 µmol/kg. Besides, the “Potency Ratio (cimetidine = 1.0)” value in the experiment on acid output is reported as 10.
`CNc1n[s+]([O-])nc1NCCSCc1ccc(CN(C)C)o1` (stereo not drawn) [Example 18, 3-{2-[(5-Dimethylaminomethyl-2-furyl)methylthio]ethylamino}-4-methylamino-1,2,5-thiadiazole 1-oxide]: the ED50 with Gastric Acid Output (setting [2]) is 0.38 µmol/kg. Also, the “Potency Ratio (cimetidine = 1.0)” value in the experiment with acid output is given as 18.
For `CNC1=NS(=O)(=O)N=C1NCCSCc1csc(NC(=N)N)n1` [Example 31, 3-{2-[(2-Guanidinothiazol-4-yl)methylthio)ethylamino}-4-methylamino-1,2,5-thiadiazole 1,1-dioxide], in the experiment on Gastric Acid Output (setting [1]), the ED50 stood at 0.41 µmol/kg. In addition, the “Potency Ratio (cimetidine = 1.0)” value in the experiment on acid output amounted to 13.
For `NC(N)=Nc1nc(CSCCNC2=NS(=O)(=O)N=C2N)cs1` [Example 35, 3-Amino-4-{2-[(2-guanidinothiazol-4-yli)methylthio]ethyl-amino}-1,2,5-thiadiazole 1,1-dioxide], in the experiment with Gastric Acid Output (setting [2]), the ED50 turned out to be 0.08 µmol/kg. Besides, the “Potency Ratio (cimetidine = 1.0)” value with acid output was determined as 20.
The matching figures for `CNC1=NS(=O)(=O)N=C1NCCSCc1ccc(CN(C)C)s1` [Example 65, 3-{2-[(5-Dimethylaminomethyl-2-thienyl)methylthio]ethyl-amino}-4-methylamino-1,2,5-thiadiazole 1,I-dioxide]: 0.07 µmol/kg and 10.
As for `CN(C)Cc1ccc(CSCCNC2=NS(=O)(=O)N=C2NCc2ccccn2)s1` [Example 129, 3-{2-[(5-Dimethylaminomethyl-2-thienyl)methylthio]ethylamino}-4-[(2-pyridyl)methylamino]-1,2,5-thiadiazole 1,1-dioxide], in the experiment on Gastric Acid Output (setting [2]), the ED50 was approximately 1 µmol/kg.
Regarding `CN(C)Cc1ccc(CSCCNC2=NS(=O)(=O)N=C2NCc2ccncc2)s1` [Example 130, 3-{2-[(5-Dimethylaminomethyl-2-thienyl)methylthio]ethylamino}-4-[(4-pyridyl)methylamino]-1,2,5-thiadiazole 1,1-dioxide], the ED50 in the experiment on Gastric Acid Output (setting [2]) is 2.3 µmol/kg.
The same measure, in the same setting: next, `CCNC1=NS(=O)(=O)N=C1NCCSCc1ccc(CN(C)C)s1` [Example 131, 3-{2-[(5-Dimethylaminomethyl-2-thienyl)methylthio]ethylamino}-4-ethylamino-1,2,5-thiadiazole 1,1-dioxide]: approximately 0.5 µmol/kg; `CNC1=NS(=O)(=O)N=C1NCCCOc1cccc(CN2CCCCC2)c1` [Example 132, 3-Methylamino-4-{3-(3-piperidinomethylphenoxy)propylamino] - 1,2,5-thiadiazole 1,1-dioxide]: 0.025 µmol/kg.
Take `NC1=NS(=O)(=O)N=C1NCCCOc1cccc(CN2CCCCC2)c1` [Example 134, 3-Amino-4-[3-(3-piperidinomethylphenoxy)propyiamino]-1,2,5-thiadiazole 1,1-dioxide]: the ED50 in the experiment with Gastric Acid Output (setting [2]) came to 0.024 µmol/kg.
`CN(C)Cc1ccc(CSCCNC2=NS(=O)(=O)N=C2NCc2ccc3c(c2)OCO3)s1` [Example 135, 3-{2-[(5-Dimethylaminomethyl-2-thienyl)methylthio]ethylamino}-4-(3,4-methylenedioxybenzylamino)-1,2,5-thiadiazole 1,1-dioxide]: in the experiment with Gastric Acid Output (setting [2]), the ED50 came to 0.57 µmol/kg.
As to `Nc1n[s+]([O-])nc1NCCSCc1ccc(CN2CCCCC2)o1` (stereo not drawn) [Example 151, 3-Amino-4-{2-.[(5-piperidinomethyl-2-furyl)methylthio]-ethylamino)-1,2,5-thiadiazole 1-oxide], the ED50 in the experiment with Gastric Acid Output (setting [2]) is 0.9 µmol/kg.

The values are drawn from patent EP0099121A2, “Pharmaceutical compositions” (Bristol-Myers Company, priority 1982, dated 1984).
